Source: ChEMBL document CHEMBL2390951, “Impact of fluorination on proteolytic stability of peptides in human blood plasma” (Bioorg Med Chem, 2013)
Non-standard residues stand in square brackets, D forms with d. Residues, ends and D or L forms follow the SMILES beside them. Abu(4,4,4-F3) = N[C@@H](CC(F)(F)F)C(=O)O; Abu(4,4-F2) = N[C@@H](CC(F)F)C(=O)O; 4Abz = Nc1ccc(C(=O)O)cc1; Abu = CC[C@H](N)C(=O)O

System: Plasma
Experiment: (§1) Proteolytic stability in human plasma assessed as compound degradation at 1:3 compound to plasma ratio after 2 hrs by RP-HPLC analysis relative to control
Format: ADME, cell-free
Conditions: 2 h

Stability	Structure (SMILES)
Stable	C[C@H](NC(=O)[C@H](C)NC(=O)[C@H](CC(F)(F)F)NC(=O)[C@H](Cc1ccccc1)NC(=O)[C@H](C)NC(=O)[C@H](C)NC(=O)[C@H](CCCCN)NC(=O)c1ccc(N)cc1)C(=O)N[C@@H](C)C(=O)N[C@@H](CCCCN)C(=O)O.O=C(O)C(F)(F)F (H-[4Abz]KAAF[Abu(4,4,4-F3)]AAAK-OH)
Stable	CC[C@H](NC(=O)[C@H](C)NC(=O)[C@H](Cc1ccccc1)NC(=O)[C@H](C)NC(=O)[C@H](C)NC(=O)[C@H](CCCCN)NC(=O)c1ccc(N)cc1)C(=O)N[C@@H](C)C(=O)N[C@@H](C)C(=O)N[C@@H](CCCCN)C(=O)O.O=C(O)C(F)(F)F (H-[4Abz]KAAFA[Abu]AAK-OH)
Unstable	C[C@H](NC(=O)[C@H](C)NC(=O)[C@H](CC(F)(F)F)NC(=O)[C@H](C)NC(=O)[C@H](Cc1ccccc1)NC(=O)[C@H](C)NC(=O)[C@H](C)NC(=O)[C@H](CCCCN)NC(=O)c1ccc(N)cc1)C(=O)N[C@@H](CCCCN)C(=O)O.O=C(O)C(F)(F)F (H-[4Abz]KAAFA[Abu(4,4,4-F3)]AAK-OH)
Stable	CC[C@H](NC(=O)[C@H](C)NC(=O)[C@H](CCCCN)NC(=O)c1ccc(N)cc1)C(=O)N[C@@H](Cc1ccccc1)C(=O)N[C@@H](C)C(=O)N[C@@H](C)C(=O)N[C@@H](C)C(=O)N[C@@H](C)C(=O)N[C@@H](CCCCN)C(=O)O.O=C(O)C(F)(F)F (H-[4Abz]KA[Abu]FAAAAK-OH)

System: not listed separately
Experiment: as §1
Format: ADME, cell-free
Conditions: read-out: Drug degradation

metabolised at 2 h [%]	Structure (SMILES)
≤ 35	C[C@H](NC(=O)[C@H](C)NC(=O)[C@H](CC(F)F)NC(=O)[C@H](C)NC(=O)[C@H](Cc1ccccc1)NC(=O)[C@H](C)NC(=O)[C@H](C)NC(=O)[C@H](CCCCN)NC(=O)c1ccc(N)cc1)C(=O)N[C@@H](CCCCN)C(=O)O (H-[4Abz]KAAFA[Abu(4,4-F2)]AAK-OH) [listing 1 of 2 here]

System: not listed separately
Experiment: Proteolytic stability in Tris-HCl buffer assessed as compound degradation at 20 umol/ml after 2 hrs by RP-HPLC analysis in presence of elastase relative to control
Format: ADME
Conditions: buffer, 2 h

Stability	Structure (SMILES)
Unstable	C[C@H](NC(=O)[C@H](C)NC(=O)[C@H](CC(F)(F)F)NC(=O)[C@H](C)NC(=O)[C@H](Cc1ccccc1)NC(=O)[C@H](C)NC(=O)[C@H](C)NC(=O)[C@H](CCCCN)NC(=O)c1ccc(N)cc1)C(=O)N[C@@H](CCCCN)C(=O)O (H-[4Abz]KAAFA[Abu(4,4,4-F3)]AAK-OH)
Stable	CC[C@H](NC(=O)[C@H](Cc1ccccc1)NC(=O)[C@H](C)NC(=O)[C@H](C)NC(=O)[C@H](CCCCN)NC(=O)c1ccc(N)cc1)C(=O)N[C@@H](C)C(=O)N[C@@H](C)C(=O)N[C@@H](C)C(=O)N[C@@H](CCCCN)C(=O)O (H-[4Abz]KAAF[Abu]AAAK-OH)
Stable	C[C@H](NC(=O)[C@H](C)NC(=O)[C@H](CC(F)F)NC(=O)[C@H](C)NC(=O)[C@H](Cc1ccccc1)NC(=O)[C@H](C)NC(=O)[C@H](C)NC(=O)[C@H](CCCCN)NC(=O)c1ccc(N)cc1)C(=O)N[C@@H](CCCCN)C(=O)O (H-[4Abz]KAAFA[Abu(4,4-F2)]AAK-OH) [listing 2 of 2 here]

Second part, the compound before the results:

Structure (SMILES)	Stability
C[C@H](NC(=O)[C@H](C)NC(=O)[C@H](CC(F)(F)F)NC(=O)[C@H](Cc1ccccc1)NC(=O)[C@H](C)NC(=O)[C@H](C)NC(=O)[C@H](CCCCN)NC(=O)c1ccc(N)cc1)C(=O)N[C@@H](C)C(=O)N[C@@H](CCCCN)C(=O)O (H-[4Abz]KAAF[Abu(4,4,4-F3)]AAAK-OH)	Stable
CC[C@H](NC(=O)[C@H](C)NC(=O)[C@H](Cc1ccccc1)NC(=O)[C@H](C)NC(=O)[C@H](C)NC(=O)[C@H](CCCCN)NC(=O)c1ccc(N)cc1)C(=O)N[C@@H](C)C(=O)N[C@@H](C)C(=O)N[C@@H](CCCCN)C(=O)O (H-[4Abz]KAAFA[Abu]AAK-OH)	Stable

Same assay, conditions: elastase in Tris-HCl buffer; read-out: Drug degradation

metabolised at 2 h, 20 umol/ml [%]	Structure (SMILES)
≤ 35	C[C@H](NC(=O)[C@H](C)NC(=O)[C@H](CC(F)F)NC(=O)[C@H](Cc1ccccc1)NC(=O)[C@H](C)NC(=O)[C@H](C)NC(=O)[C@H](CCCCN)NC(=O)c1ccc(N)cc1)C(=O)N[C@@H](C)C(=O)N[C@@H](CCCCN)C(=O)O (H-[4Abz]KAAF[Abu(4,4-F2)]AAAK-OH)
≤ 35	C[C@H](NC(=O)[C@H](C)NC(=O)[C@H](C)NC(=O)[C@H](Cc1ccccc1)NC(=O)[C@H](CC(F)F)NC(=O)[C@H](C)NC(=O)[C@H](CCCCN)NC(=O)c1ccc(N)cc1)C(=O)N[C@@H](C)C(=O)N[C@@H](CCCCN)C(=O)O (H-[4Abz]KA[Abu(4,4-F2)]FAAAAK-OH)
